Like-named read-outs stand apart in the source and are kept apart here.
Key:
[1] = test system: influenza A virus (A/PR/8/34 strain); format: cell-based; conditions: read-out: Inhibiting Activity Cell Fusion (IC50)
[2] = test system: influenza A virus (A/PR/8/34 strain); format: cell-based; conditions: read-out: Inhibiting Activity Infection (IC50)
[3] = test system: influenza A virus (A/PR/8/34 strain)

Substance: Pentenyl(5-acetamido-3,5-dideoxy-D-glycero-α-D-galacto-2-nonulopyranosylic Acid)-O-β-D-galactopyranosyl-(1→4)-O-β-D-glucopyranoside [vii]
- IC50 [1]: 745 µM
- IC50 [2]: 124 µM
- Inhibiting Activity Erythrocyte Aggregation [3]: 133.3 µM
